The values that follow come from publication PMC8079060 (Drug Delivery, 2021).

The nature of data set [1]: Plasma pharmacokinetics after intravenous administration. To be noted: rats; for Tmax: i.v. NPPA-PTX NPs 6.04 mg kg^−1 (equimolar with 5.00 mg kg^−1 PTX) or Taxol 5.00 mg kg^−1; for Tmax / AUCINF_obs / AUClast / Cmax: plasma. The method, then: Post injection, ∼200 μL blood samples were drawn from the jugular vein at predetermined time points of 0.033, 0.083, 0.25, 0.5, 1, 2, 4, 6, 8, 12, and 24 h post-injection and centrifuged immediately at 3000 rpm for 10 min at 4 °C. […] 200 μL of deionized water was added into the 40 μL supernatants followed by vortexing for 1 min. Finally, the pharmacokinetic data analysis was performed via a liquid chromatography-tandem mass spectrometry (LC-MS/MS Applied Biosystems. Foster City, CA, USA) and pharmacokinetic parameters were acquired by Winnolin 7.0 software.

A short description of data set [2]: Tissue distribution in MDA-MB-231 tumor-bearing nude mice.
Method: Mice were sacrificed and the tumors and main organs were harvested at 1, 4, 8, and 24 h after administration. Each tissue sample was homogenized in 1 mL acetonitrile and centrifugated.
In another data set the test system is MDA-MB-231 cells. Put plainly: cells. The conditions noted are these: Homo sapiens. The method, then: (§1) Dose-effect curves were constructed and IC50 values were calculated by GraphPad Prism6/SPSS Software.
For a further data set, the system named is HCT116 cells. Put plainly: cells. The conditions noted are these: Homo sapiens, HCT-116. The method, then:
as §1

Where [3] appears, read: i.v. NPPA-PTX NPs 6.04 mg kg^−1 or Taxol 5.00 mg kg^−1, mean ± SEM, n = 3.

Where “and” joins values, the source holds several entries; their conditions need not be identical. Equal entries are not always repeated.

Consider `CC(=O)OC1C(=O)C2(C)C(O)CC3OCC3(OC(C)=O)C2C(OC(=O)c2ccccc2)C2(O)CC(OC(=O)C(O)C(NC(=O)c3ccccc3)c3ccccc3)C(C)=C1C2(C)C` (centres unmarked) [PTX from Taxol], for which, in data set [1] (mean ± SEM, n = 3), the Tmax – broadly, the time at which the peak concentration occurs – was 2 ± 0 min. In data set [1] (setting [3]), the Cl_obs worked out at 19.5 ± 6.63 mL/min/kg; the HL_Lambda_z is 5.86 ± 1.24 h; the MRTlast was found to be 2.50 ± 0.545 h; the “Vz_obs (apparent distribution volume)” value is 10,300 mL kg^−1 and 10,300 ± 5480 mL kg^−1. For the same molecule, in data set [1] (setting [3]), the AUCINF_obs amounted to 4560 ± 1310 ng·h/mL, the AUClast is 4480 ± 1310 ng·h/mL and the peak concentration (Cmax) (usually the highest concentration seen after dosing) was 8600 ± 2500 ng/mL.

As to `CC(=O)OC1C(=O)C2(C)C(O)CC3OCC3(OC(C)=O)C2C(OC(=O)c2ccccc2)C2(O)CC(OC(=O)C(OC(=O)CCc3ccccc3[N+](=O)[O-])C(NC(=O)c3ccccc3)c3ccccc3)C(C)=C1C2(C)C` (centres unmarked) [NPPA-PTX, 3-(2-nitrophenyl) propionic acid-paclitaxel], the Tmax in data set [1] (mean ± SEM, n = 3) is 2 ± 0 min. In data set [1] (setting [3]), the Cl_obs worked out at 33.17 ± 16.4 mL/min/kg, the HL_Lambda_z is 7.45 ± 0.915 h, the “MRTINF_obs (mean residence time)” value amounted to 3.90 ± 0.656 h and the MRTlast was determined as 2.91 ± 0.280 h. Moreover, in data set [1] (setting [3]), the “Vz_obs (apparent distribution volume)” value is 20,700 mL kg^−1 and 20,700 ± 9320 mL kg^−1; the AUCINF_obs is 3930 ± 2710 ng·h/mL; the AUClast is 3810 ± 2640 ng·h/mL; the Cmax turned out to be 4580 ± 2140 ng/mL. For the same molecule, in data set [2] (Heart), the AUC tissue/plasma is 0.65. Further, in data set [2] (Kidney), the AUC tissue/plasma stood at 0.79. In data set [2] (Liver), this molecule registered an AUC tissue/plasma of 3.17. In data set [2] (Lung), this molecule showed an AUC tissue/plasma of 0.55. Moreover, in data set [2] (Spleen), the AUC tissue/plasma is reported as 0.35. Moreover, the AUC tissue/plasma in data set [2] (plasma) was 1.00. Further, the AUC tissue/plasma in data set [2] (tumor) turned out to be 0.45.

In the case of `CC(=O)OC1C(=O)C2(C)C(O)CC3OCC3(OC(C)=O)C2C(OC(=O)c2ccccc2)C2(O)CC(OC(=O)C(O)C(NC(=O)c3ccccc3)c3ccccc3)C(C)=C1C2(C)C` (centres unmarked) [PTX released from NPPA-PTX], the “MRT compared to that of PTX from Taxol” value in data set [1] (i.v.) is recorded as 4 fold. For the same molecule, the time of peak concentration (Tmax) in data set [1] (mean ± SEM, n = 3) amounted to 2 ± 0 min. In addition, in data set [1] (setting [3]), the Cl_obs came out at 127.5 ± 34.17 mL/min/kg, the HL_Lambda_z was 9.53 ± 5.82 h, the MRTlast turned out to be 7.38 ± 0.817 h and the “Vz_obs (apparent distribution volume)” value is given as 93,700 ± 26,400 mL kg^−1. In data set [1] (setting [3]), this molecule showed an AUCINF_obs of 837 ± 264 ng·h/mL, an AUClast of 695 ± 99.6 ng·h/mL and a Cmax of 99.0 ± 29.2 ng/mL. The “Vz_obs (apparent distribution volume)” value in data set [1] (i.v. NPPA-PTX NPs 6.04 mg kg^−1 or Taxol 5.00 mg kg^−1, mean ± SEM, n = 3, listed as released PTX from NPPA-PTX) was 93,700 mL kg^−1. For the same molecule, the “AUC0–24h in plasma compared with PTX from Taxol” value in data set [2] (plasma) was “lower values (about three tenths)”. For the same molecule, in data set [2] (tumor), the “AUC0–24h in tumor compared with PTX from Taxol” value is “equivalent values”.

Regarding `CC(=O)O[C@H]1C(=O)[C@@]2(C)[C@H]([C@H](OC(=O)c3ccccc3)[C@]3(O)C[C@H](OC(=O)[C@H](O)[C@@H](NC(=O)c4ccccc4)c4ccccc4)C(C)=C1C3(C)C)[C@]1(OC(C)=O)CO[C@@H]1C[C@@H]2O` [PTX, paclitaxel], the IC50 – broadly, the point on the concentration scale where inhibition reaches its midpoint – amounted to 0.063 ± 0.0033 µM in the data set with MDA-MB-231 cells and 0.3 ± 0.02 µM in the data set on HCT116 cells.
